Patent US10023565B2, “N,N′ substituted piperidinamine compounds, and preparation method and usage thereof” (Institute of Pharmacology and Toxicology Academy of …, priority 2013, dated 2018)
Like-named read-outs stand apart in the source and are kept apart here.

Key:
BGC823 = experiment: Extended test against tumor cell lines (ATPlite); assay type: cell-based; conditions: BGC823 (gastric cancer), 72 hours
Experimental: (§1) The compounds of Examples 36/37/40/47/49 were used to carry out extended test against tumor cell lines, wherein 12 kinds of cells were selected, including liver cancer cells, gastric cancer cells, pancreatic cancer cells, colorectal cancer cells, lung cancer cells and normal cells, which were shown in Table 12:
(§2) A 100 mm culture dish with overgrown adherent cells was digested with 1 ml 0.25% trypsin (GIBCO) at 37° C. for 5 min, and the reaction was terminated with 2 ml culture medium (containing 10% FBS, GIBCO). The cells were scattered and collected, after counting, diluted to 1×10^5 cells/ml, and seeded into a 96-well plate at 50 μl/well, 5000 cells/well, excluding the peripheral circle of wells in which no cell was added, but PBS was added, 54 wells in total, and then incubated at 37° C. for 24 hours for adhering.
(§3) The test sample was diluted to final concentration of 4, 1, 0.25, 0.063, 0.016 μM, culture medium was filled in control well, 3 parellel wells were set for each concentration, 50 μl each well, followed by incubation at 37° C. for 72 hours.
(§4) 3) Test after incubation at 37° C. for 72 hours: 50 μL of ATPlite kitsubstrate solution was added in each well, and vibrated for 3 min, followed by placing aside in darkness for 10 min, and then supernatant 100 μl/well was taken and placed on a luminescence test plate; the luminescence test plate that has been fully incubated was placed in a luminescence test instrument, to read luminescence value.
(§5) Cell survival rate (%)=Experimental group RLU/control group RLU×100%. The experimental data were subjected to data analysis and processing by utilizing GraphPad software.

[1] = tested on: WI-38 (human embryonic lung fibroblast); experiment: Extended test against tumor cell lines (ATPlite); assay type: cell-based; conditions: WI-38 (normal cells), 72 hours
Experimental: as §1, §2, §3, §4, §5

HT-29 = experiment: Extended test against tumor cell lines (ATPlite); assay type: cell-based; conditions: HT-29 (colorectal cancer), 72 hours
Experimental: as §1, §2, §3, §4, §5

HepG2 = experiment: Extended test against tumor cell lines (ATPlite); assay type: cell-based; conditions: HepG2 (liver cancer), 72 hours
Experimental: as §1, §2, §3, §4, §5

COLO205 = experiment: Extended test against tumor cell lines (ATPlite); assay type: cell-based; conditions: COLO205 (colorectal cancer), 72 hours
Experimental: as §1, §2, §3, §4, §5

A549 = experiment: Extended test against tumor cell lines (ATPlite); assay type: cell-based; conditions: A549 (lung cancer), 72 hours
Experimental: as §1, §2, §3, §4, §5

Huh-7 = experiment: Extended test against tumor cell lines (ATPlite); assay type: cell-based; conditions: Huh-7 (liver cancer), 72 hours
Experimental: as §1, §2, §3, §4, §5

N87 = experiment: Extended test against tumor cell lines (ATPlite); assay type: cell-based; conditions: N87 (gastric cancer), 72 hours
Experimental: as §1, §2, §3, §4, §5

AsPC-1 = experiment: Extended test against tumor cell lines (ATPlite); assay type: cell-based; conditions: AsPC-1 (pancreatic cancer), 72 hours
Experimental: as §1, §2, §3, §4, §5

H460 = experiment: Extended test against tumor cell lines (ATPlite); assay type: cell-based; conditions: H460 (lung cancer), 72 hours
Experimental: as §1, §2, §3, §4, §5

[2] = tested on: MRC5 (lung epithelial fibroblast); experiment: Extended test against tumor cell lines (ATPlite); assay type: cell-based; conditions: MRC5 (normal cells), 72 hours
Experimental: as §1, §2, §3, §4, §5

MIA-PaCa-2 = experiment: Extended test against tumor cell lines (ATPlite); assay type: cell-based; conditions: MIA-PaCa-2 (pancreatic cancer), 72 hours
Experimental: as §1, §2, §3, §4, §5

BT/Lap^R1.0 = experiment: Antitumor bioactivity evaluation, breast cancer cells (ATPlite); assay type: cell-based, human; conditions: for inhibition at 5 µM: test sample 5 μM, 72 hours, read-out: Inhibitory Rate % BT/Lap^R1.0
Method in brief: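 Survival rate was calculated as experimental over control RLU ×100% from an ATPlite luminescence read. Treatment ran 72 h at 37 °C with 5 μM compound, single agent or combined with 1 μM lapatinib.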

CSc1nccc(N2CCC(N(C)Cc3ccc(C#N)cc3)CC2)n1 [Example 36, N-methyl-N-(4-cyanobenzyl)-N-[1-(2-methylthiopyrimidin-4-yl)piperidin-4-yl]amine]
Survival rate (BGC823; 0.016 μM): 96.6%
Survival rate (BGC823; 0.063 μM): 93.2%
Survival rate (BGC823; 0.25 μM): 89.1%
Survival rate (BGC823; 1 μM): 74.3%
Survival rate (BGC823; 4 μM): 27.7%
Survival rate ([1]; 0.016 μM): 93.9%
Survival rate ([1]; 0.063 μM): 93.7%
Survival rate ([1]; 0.25 μM): 91.5%
Survival rate ([1]; 1 μM): 82.0%
Survival rate ([1]; 4 μM): 51.1%
Survival rate (HT-29; 0.016 μM): 97.5%
Survival rate (HT-29; 0.063 μM): 94.3%
Survival rate (HT-29; 0.25 μM): 90.9%
Survival rate (HT-29; 1 μM): 79.0%
Survival rate (HT-29; 4 μM): 27.1%
Survival rate (HepG2; 0.016 μM): 98.8%
Survival rate (HepG2; 0.063 μM): 97%
Survival rate (HepG2; 0.25 μM): 94.7%
Survival rate (HepG2; 1 μM): 77.1%
Survival rate (HepG2; 4 μM): 4.5%
Survival rate (COLO205; 0.016 μM): 96.7%
Survival rate (COLO205; 0.063 μM): 96.9%
Survival rate (COLO205; 0.25 μM): 95.3%
Survival rate (COLO205; 1 μM): 84.5%
Survival rate (COLO205; 4 μM): 4.9%
Survival rate (A549; 0.016 μM): 98.9%
Survival rate (A549; 0.063 μM): 97.6%
Survival rate (A549; 0.25 μM): 95.3%
Survival rate (A549; 1 μM): 75.8%
Survival rate (A549; 4 μM): 46.5%
Survival rate (Huh-7; 0.016 μM): 90.9%
Survival rate (Huh-7; 0.063 μM): 88.2%
Survival rate (Huh-7; 0.25 μM): 83.0%
Survival rate (Huh-7; 1 μM): 65.4%
Survival rate (Huh-7; 4 μM): 14.3%
Survival rate (N87; 0.016 μM): 92.9%
Survival rate (N87; 0.063 μM): 96.7%
Survival rate (N87; 0.25 μM): 97.2%
Survival rate (N87; 1 μM): 77.1%
Survival rate (N87; 4 μM): 40.3%
Survival rate (AsPC-1; 0.016 μM): 96.8%
Survival rate (AsPC-1; 0.063 μM): 99.4%
Survival rate (AsPC-1; 0.25 μM): 94.9%
Survival rate (AsPC-1; 1 μM): 90.0%
Survival rate (AsPC-1; 4 μM): 57.2%
Survival rate (H460; 0.016 μM): 99.4%
Survival rate (H460; 0.063 μM): 99.3%
Survival rate (H460; 0.25 μM): 97.3%
Survival rate (H460; 1 μM): 93.6%
Survival rate (H460; 4 μM): 19.1%
Survival rate ([2]; 0.016 μM): 96.8%
Survival rate ([2]; 0.063 μM): 96.1%
Survival rate ([2]; 0.25 μM): 91.0%
Survival rate ([2]; 1 μM): 76.1%
Survival rate ([2]; 4 μM): 39.1%
Survival rate (MIA-PaCa-2; 0.016 μM): 91.6%
Survival rate (MIA-PaCa-2; 0.063 μM): 92.2%
Survival rate (MIA-PaCa-2; 0.25 μM): 91.2%
Survival rate (MIA-PaCa-2; 1 μM): 66.0%
Survival rate (MIA-PaCa-2; 4 μM): 22.2%
IC50 (BT/Lap^R1.0): 1470 nM
IC50 (BT/Lap^R1.0; Homo sapiens): 1410 nM
inhibition at 5 µM (BT/Lap^R1.0; Homo sapiens): 76.2%

CSc1nccc(N2CCC(N(C)Cc3c(F)cccc3Cl)CC2)n1 [Example 37, N-methyl-N-(2-fluoro-6-chlorobenzyl)-N-[1-(2-methylthiopyrimidin-4-yl)piperidin-4-yl]amine]
Survival rate (BGC823; 0.016 μM): 97.6%
Survival rate (BGC823; 0.063 μM): 97.2%
Survival rate (BGC823; 0.25 μM): 90.2%
Survival rate (BGC823; 1 μM): 59.7%
Survival rate (BGC823; 4 μM): 21%
Survival rate ([1]; 0.016 μM): 98.6%
Survival rate ([1]; 0.063 μM): 99.2%
Survival rate ([1]; 0.25 μM): 95.5%
Survival rate ([1]; 1 μM): 89.7%
Survival rate ([1]; 4 μM): 65.6%
Survival rate (HT-29; 0.016 μM): 99.3%
Survival rate (HT-29; 0.063 μM): 97.4%
Survival rate (HT-29; 0.25 μM): 94.4%
Survival rate (HT-29; 1 μM): 82.1%
Survival rate (HT-29; 4 μM): 33.8%
Survival rate (HepG2; 0.016 μM): 97.1%
Survival rate (HepG2; 0.063 μM): 92.3%
Survival rate (HepG2; 0.25 μM): 78.1%
Survival rate (HepG2; 1 μM): 45.7%
Survival rate (HepG2; 4 μM): 5.6%
Survival rate (COLO205; 0.016 μM): 100.1%
Survival rate (COLO205; 0.063 μM): 97.5%
Survival rate (COLO205; 0.25 μM): 100.4%
Survival rate (COLO205; 1 μM): 94.5%
Survival rate (COLO205; 4 μM): 12.9%
Survival rate (A549; 0.016 μM): 99.5%
Survival rate (A549; 0.063 μM): 98.5%
Survival rate (A549; 0.25 μM): 97.6%
Survival rate (A549; 1 μM): 73%
Survival rate (A549; 4 μM): 39.5%
Survival rate (Huh-7; 0.016 μM): 91.9%
Survival rate (Huh-7; 0.063 μM): 86.7%
Survival rate (Huh-7; 0.25 μM): 82.3%
Survival rate (Huh-7; 1 μM): 46.7%
Survival rate (Huh-7; 4 μM): 14.9%
Survival rate (N87; 0.016 μM): 98.9%
Survival rate (N87; 0.063 μM): 95.6%
Survival rate (N87; 0.25 μM): 89.7%
Survival rate (N87; 1 μM): 66.8%
Survival rate (N87; 4 μM): 37.1%
Survival rate (AsPC-1; 0.016 μM): 98.8%
Survival rate (AsPC-1; 0.063 μM): 99.5%
Survival rate (AsPC-1; 0.25 μM): 94.1%
Survival rate (AsPC-1; 1 μM): 81.7%
Survival rate (AsPC-1; 4 μM): 52.3%
Survival rate (H460; 0.016 μM): 97.7%
Survival rate (H460; 0.063 μM): 97.9%
Survival rate (H460; 0.25 μM): 92.3%
Survival rate (H460; 1 μM): 63.1%
Survival rate (H460; 4 μM): 22%
Survival rate ([2]; 0.016 μM): 97.3%
Survival rate ([2]; 0.063 μM): 99.5%
Survival rate ([2]; 0.25 μM): 93.5%
Survival rate ([2]; 1 μM): 90.4%
Survival rate ([2]; 4 μM): 65.3%
Survival rate (MIA-PaCa-2; 0.016 μM): 97.6%
Survival rate (MIA-PaCa-2; 0.063 μM): 97.5%
Survival rate (MIA-PaCa-2; 0.25 μM): 91.5%
Survival rate (MIA-PaCa-2; 1 μM): 61.9%
Survival rate (MIA-PaCa-2; 4 μM): 16%
IC50 (BT/Lap^R1.0; Homo sapiens): 940 nM
inhibition at 5 µM (BT/Lap^R1.0; Homo sapiens): 70.7%
